Test system: B16-F1 mouse melanoma cells
Test: B16 F1 melanoma cell based assay for melanogenesis (melanin content in media)
Conditions: for Melanin (% Control) Alone: 72 hours, absorbance at 530 nm, lower = more inhibition
Experimental: The ability to inhibit melanin production was assessed using B16 cells, a mouse melanoma cell line.
B16-F1 mouse melanoma cells (obtained from American Type Culture Collection, MD, USA) were maintained in 75 cm^2 culture flasks in RPMI 1640 medium supplemented with L-glutamine (4 mM) and 10% fetal bovine serum (FBS) at 37° C. in a water-saturated, 5% CO2 in air atmosphere. Sub-confluent B16 cells were seeded in 96 well microtiter plates at a density of 5×10^3 cells/well in 200 μl of DMEM containing 10% FBS and 1% penicillin/streptomycin without phenol red at 37° C. under 5% CO2. After 24 hours, the media was replaced with fresh DMEM media containing various compounds at designated concentrations. Cells were incubated for 72 hours at which time melanin was visible in the control well (dark color) where no testing compounds were added.
The amount of melanin produced for each well was quantified by assessing melanin released into the culture media. The pigment containing media from each well was transferred to a clean 96 well plate and the melanin content was quantified by reading the absorbance at 530 nm. Melanin content in each well was calculated as a percent of the control where cells were maintained in DMEM medium or solvent control.
Melanin content in the media was expressed as percent of control, therefore the lower the value is, the more inhibition resulted from the tested compounds.

Row | Structure (SMILES) | inhibitory effects on melanin production (B16 cell assay, dose-dependent) | Melanin (% Control) Alone (co-active alone at 2 mM) [% Control] | Melanin (% Control) Alone (co-active alone at 5 mM) [% Control] | Melanin (% Control) Alone (co-active alone at 10 mM) [% Control] | Melanin (% Control) Alone (co-active alone at 15 mM) [% Control]
1 | CC(O)C(=O)O (racemic) [DL-lactic acid] | strong inhibitory effects | 103.8 ± 20.5 | 98 ± 19.3 | 79 ± 16.8 | 33.5 ± 7.9
2 | N[C@@H](Cc1ccccc1)C(=O)O [L-phenylalanine] | – | 84.9 ± 16.9 | 48.3 ± 10 | 10 ± 2.7 | 49.7 ± 9.9
3 | NC(=O)c1cccnc1 [Niacinamide] | – | 94.8 ± 19 | 83.9 ± 16.7 | 66.1 ± 13 | 50.3 ± 10.2

Source: patent publication US20020106384A1, “Cosmetic compositions and methods for lightening the skin” (priority 1999, published 2002)
